Data published in patent publication US7435407B2, “Inhibition of olfactory neurosensory function to treat eating disorders and obesity” (Compellis Pharmaceuticals, priority 2002, dated 2008).

What was measured:
olfactory epithelium = experiment: Electro-olfactory (EOG) recording of olfactory epithelium response to odorant Citralva; format: in vivo, mice; details: 10 μl/nostril intranasal, recording 10 min later
Method: A detailed description of the method employed is provided, e.g., by Wong et al. (Neuron 2000: 27: 487-97), and Scott (J Neurosci 2000; 15:4721-31). Briefly, six week old mice were used and each mouse was given 10 μl/nostril of Diltiazem at 10 μM, 100 μM, or saline. It was returned to home cage and euthanized 10 min later for electro-olfactory (EOG) recording. The odorant was Ciltralva at 5 μM. Also included was a “no treatment” control.

[1] = Rota-Rod test after intranasal administration; format: in vivo, rat; details: intranasal 1 mg/kg; 6 rpm; sessions 0-60 minutes after administration
Method: Two groups of rats (12 rats each) were tested. Each rat went through 8 sessions on the rota-rod: 3 sessions before drug administration (pretest, time −45, −30, and −15 minutes); 1 session immediately after the drug was administered (time 0); and 4 sessions after drug administration (time 15, 30, 45, and 60 minutes).
A speed of 6 rpm was used, and diltiazem was administered, as described above, intra-nasally at 1 mg/kg.

[2] = Food intake in food-deprived rats after intranasal administration; format: in vivo, rat
Method: Male Sprague-Dawley rats, 150-175 g at the start of the experiments (Charles River Laboratories, Wilmington, Mass.) were housed individually in suspended wire mesh cages; maintained on a reversed-lighting schedule (lights-on at 7 p.m., lights-off at 7 a.m.); and acclimated to our climate controlled animal facility and to the test diets for 7 days prior to experimentation. As the experiments in food-deprived rats were performed during the dark cycle, a dull red light (25 watt) was used to help with placement and weighing of the food jars.
Rats had ad libitum access to tap water and food (Rodent Laboratory Chow No. 5001-pellet form, Purina) on non-testing days. A mush diet, used for experiments on food-deprived animals, and composed of equal parts by weight of ground rodent chow (Purina, # 5001-meal form) and a 4% nutrient agar solution (Teklad Diets) was presented to the animals in glass jars. […]
One hour after administration, pre-weighed food jars were introduced into the cage and a sheet of clean white paper placed under each cage to catch any spillage. The amount of food consumed after 1, 2 and 4 hours was determined to the nearest 0.01 g. […]
One hour later pre-weighed food jars were introduced into the cage and a sheet of clean white paper placed under each cage to catch any spillage. The amount of food consumed after 1, 2 and 4 hours was determined to the nearest 0.01 g.

## COc1ccc([C@@H]2Sc3ccccc3N(CCN(C)C)C(=O)[C@@H]2OC(C)=O)cc1 [diltiazem, Diltiazem]
Olfactory epithelium; 10 μM
  effect on olfactory nerve activity (EOG response to Citralva 5 μM): little effect
Olfactory epithelium; 100 μM
  effect on olfactory nerve response (EOG response to Citralva 5 μM): blocked
[1]
  activity (balance and agility) in Rota-Rod test, drug versus vehicle group: no indications of a difference in activity
[2]; dosing study, intranasal 20 μL/nostril, 0.02, 0.2 and 2 mg/kg, strong trend (FIG. 2)
  optimal dose (concentration of solution) for reduction of food intake: 0.2-20 % w/v
[2]; intranasal 20 μL/nostril, 0.02-2 mg/kg, food given 1 hour after administration, consumed after 1, 2 and 4 hours, versus placebo (FIG. 1)
  amount of food consumed: consumed significantly less food
